Columns and labels:
Porcine brain tubulin = molecular target: T1, Porcine brain tubulin (Sus scrofa, UniProt P02550+P02554); assay: In vitro tubulin polymerization inhibition assay (OD340); assay type: biochemical; settings: 37 °C, 1 h, versus blank control
T1 construct: purchased Cytoskeleton, Inc. BK004P; host or cells: porcine brain tissue
Procedure: The in vitro tubulin polymerization inhibition assay was carried out by using the Tubulin Polymerization Assay Kit (Cytoskeleton, Inc., USA) according to the protocol in the manual. Porcine brain tubulin was incubated with compound 6j at concentrations of 5 and 10 μM. The positive control colchicine and negative control taxol were co-assayed at the concentration of 10 μM, and G-PEM buffer was used as the blank control.
The tubulin polymerization assay was accomplished using a commercial assay kit (cat. #BK004P) purchased from Cytoskeleton, Inc. (Danvers, MA, USA). Tubulin isolated from porcine brain tissue was used in this tubulin polymerization assay kit. Tubulin polymerizations are followed by an increase in optical density at 340 nm (OD340) over a 60 min period at 37 °C due to the light scattered by microtubule polymer. At first, tubulin (4 mg) was disovled in 1 mL of G-PEM buffer containing 80 mM piperazine-N,N′-bis(2-ethanesulfonic acid) sequisodium salt (PIPES, pH 6.9), 2.0 mM MgCl2, 0.5 mM EGTA and 1 mM GTP to prepare tubulin solution. Subsequently, 10 μL of 10 × stock solutions of the tested compounds at different concentrations were added to a prewarmed 96-well plate and incubated at 37 °C for 2 min, then 90 μL of tubulin solution was also added into each well to initiate the reaction. The optical intensity (OD340) of each well was recorded every 60 s for 60 min (Cytation 3 Cell Imaging Multi-Mode Reader, BioTek Instruments, Inc., USA). Colchicine and taxol were co-assayed as the positive control and negative control, respectively. G-PEM buffer was used as the blank control.

[1] = system: intracellular microtubule system of SMMC-7721 cells; assay: Immunofluorescence staining of microtubule network; assay type: cell-based, human; settings: 24 h (Fig. 4 legend)
Procedure: Since the tubulin polymerization inhibitory effect of compound 6j has been verified, we subsequently performed the immunofluorescent staining assay to observe its effect on the intracellular microtubule system of SMMC-7721 cells.
[…] After being washed with phosphate buffer solution (PBS) and fixed in 4% paraformaldehyde for 15 min, the cells were permeabilized with 0.5% Triton X-100 for 15 min and blocked for 30 min with 10% goat serum. Then, the cells were incubated with mouse anti-tubulin antibody (ZSGB-Bio, China) at 4 °C overnight and incubated with goat anti-mouse IgG/Alexa-Fluor 488 antibody (ZSGB-Bio, China) at room temperature for 1 h. After the nuclei were stained with Hoechst 33258 (Beyotime Biotech., China) in the dark at room temperature for 30 min, the samples were immediately visualized on a Zeiss LSM 570 laser scanning confocal microscope (Carl Zeiss, Germany).

SMMC-7721 cells [2] = assay: Annexin V-FITC/PI dual staining assay (apoptosis); assay type: cell-based, human; settings: highest concentration 2.0 μM, 24 h; control 10.12%
Procedure: In order to investigate whether compound 6j could induce cell apoptosis, SMMC-7721 cells treated with different concentrations of compound 6j were subjected to Annexin V-FITC/propidium iodide (PI) dual staining followed by flow cytometry assay.
Apoptosis was discriminated with the Annexin V-FITC/PI dual staining assay. SMMC-7721 cells were seeded at 1 × 10^5 cells per well in 10% fetal calf serum (FBS)-DMEM into six-well plates and treated with or without compound 6j for 24 h. The cells were detached with 0.25% trypsin, washed twice with ice-cold PBS and then resuspended in 500 μL of 1× binding buffer (0.1 M Hepes/NaOH (pH 7.4), 1.4 M NaCl, 25 mM CaCl2). The solution was transferred into 5 mL culture tubes, and 5 μL of Annexin V-FITC (BD, Pharmingen) and 5 μL of PI were added to each tube. The cells were gently vortexed, and incubated for 30 min at 25 °C in the dark. The analysis was performed on a flow cytometry (Becton-Dickinson FACSCalibur, New York, USA).

SMMC-7721 cells [3] = assay: Wound healing assay (cell migration); assay type: cell-based, human; settings: 0.2 and 0.5 μM, up to 48 h
Source text: Metastasis is a multistep process involving cancer cell motility and invasion which represents a key difficulty for cancer therapy. Thus, the inhibition of metastasis is vital for efficient cancer treatment. Microtubule plays an important role in cell motility and migration. As compound 6j inhibits tubulin polymerization, the capacity of migration inhibition was also investigated through wound healing assay.[45] In this assay, standard scratches (wounds) were made in confluent monolayers of SMMC-7721 cells and incubated with different concentrations (0, 0.1, 0.2 and 0.5 μM) of compound 6j. The migration of SMMC-7721 cells was recorded by microscopic observations at 0, 24 and 48 h.
SMMC-7721 cells (5 × 10^5 cells per well) were grown in a 12-well plate for 24 h. Scratches were made in confluent monolayers using 200 μL pipette tip. Then, wounds were washed twice with PBS to remove non-adherent cell debris. The media containing different concentrations (0, 0.1, 0.2 and 0.5 μM) of compound 6j were added to the corresponding wells. Cells which migrated across the wound area were photographed under the phase contrast microscope (Olympus 1X71 Inverted System Microscope, Olympus, Japan) after 24 and 48 h treatment.

SMMC-7721 cells [4] = assay: JC-1 mitochondrial membrane potential assay; assay type: cell-based, human; settings: 24 h, control 6.47%
Source text: As the most important organelle, mitochondria play key roles not only on supplying metabolic energy in the form of ATP, but also on regulating the signal transmission during the apoptosis of cancer cells.[46] Besides, the mitochondrial dysfunction can be aroused under high ROS exposure, leading to the collapse of mitochondrial membrane potential (ΔΨm), which is a characteristic phenomenon of early apoptosis.[47] In order to further investigate the apoptosis-inducing effect of target compound 6j, mitochondrial membrane potential changes were detected using the fluorescent probe JC-1. As a lipophilic cationic dye, JC-1 can easily pass through the plasma membrane into cells and accumulates in actively respiring mitochondria. In control cells, JC-1 can form aggregates in mitochondrial matrix and present high red fluorescence. However, in apoptotic cells whose mitochondrial potential has collapsed, JC-1 exists in cytosol as a monomer which emits green fluorescence. SMMC-7721 cells treated with different concentrations (0, 0.1, 0.2, 0.5, 1.0 and 2.0 μM) of compound 6j for 24 h were stained with JC-1 and then subjected to flow cytometry.
The JC-1 mitochondrial membrane potential assay kit (Keygene Biotech., China) was employed to measure mitochondrial depolarization in SMMC-7721 cells. Briefly, cells cultured in six-well plates after indicated treatments were incubated with an equal volume of JC-1 staining solution (5 μg mL^−1) at 37 °C for 20 min and rinsed twice with PBS. Mitochondrial membrane potentials were monitored by determining the relative amounts of dual emissions from mitochondrial JC-1 monomers or aggregates using flow cytometry (Becton-Dickinson FACSCalibur, New York, USA). Mitochondrial depolarization is indicated by an increase in the percentage of cells with low ΔΨm (green fluorescence, lower right quadrant) compared with cells with high ΔΨm (red fluorescence, upper right quadrant).

T1 sequence (P02554 whole entry): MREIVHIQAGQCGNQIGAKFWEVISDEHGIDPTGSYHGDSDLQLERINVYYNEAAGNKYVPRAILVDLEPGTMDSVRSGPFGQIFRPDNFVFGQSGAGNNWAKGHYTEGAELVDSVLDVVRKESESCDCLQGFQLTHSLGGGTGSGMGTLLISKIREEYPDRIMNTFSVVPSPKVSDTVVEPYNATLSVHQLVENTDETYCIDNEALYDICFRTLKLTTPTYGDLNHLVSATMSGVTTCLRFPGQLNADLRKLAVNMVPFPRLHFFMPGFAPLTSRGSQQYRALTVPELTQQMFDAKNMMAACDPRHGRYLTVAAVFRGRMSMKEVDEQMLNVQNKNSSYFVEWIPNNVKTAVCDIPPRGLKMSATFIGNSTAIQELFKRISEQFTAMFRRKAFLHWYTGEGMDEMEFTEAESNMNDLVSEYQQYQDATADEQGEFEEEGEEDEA
T1 sequence (P02550 whole entry): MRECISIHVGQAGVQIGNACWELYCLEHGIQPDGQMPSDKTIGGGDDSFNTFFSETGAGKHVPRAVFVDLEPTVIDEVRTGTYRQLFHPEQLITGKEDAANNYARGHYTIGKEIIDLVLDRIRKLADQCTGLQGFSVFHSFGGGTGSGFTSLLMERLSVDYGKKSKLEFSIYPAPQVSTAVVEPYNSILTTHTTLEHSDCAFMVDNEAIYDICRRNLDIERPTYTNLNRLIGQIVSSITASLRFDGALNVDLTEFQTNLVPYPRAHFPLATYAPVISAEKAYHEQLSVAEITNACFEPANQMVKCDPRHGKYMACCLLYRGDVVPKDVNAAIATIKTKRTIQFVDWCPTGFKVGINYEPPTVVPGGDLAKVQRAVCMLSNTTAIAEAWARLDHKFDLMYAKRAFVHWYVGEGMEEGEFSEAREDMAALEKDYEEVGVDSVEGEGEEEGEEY

## COC(=O)[C@]1(C)CCC[C@]2(C)c3cc(Br)c4nc(-c5ccc6[nH]ccc6c5)[nH]c4c3CCC12 (some centres unmarked) [Compound 6j, Methyl 2′-(1H-indol-5-yl)-12-bromo-13,14-imidazolyl-deisopropyl-dehydroabietate]
Porcine brain tubulin; 10 μM
  effect on tubulin polymerization speed and final absorbance (OD340): stronger than colchicine
Porcine brain tubulin; 5 and 10 μM
  effect on tubulin polymerization speed and final absorbance (OD340): substantially decreased the polymerization speed and the final absorbance in a dose-dependent manner
[1]; 0.5 μM
  effect on the microtubule network: most microtubule networks disappeared
[1]; 0.1–0.5 μM
  effect on the microtubule network: the meshy microtubule networks shrank around the nuclei in a dose-dependent manner
SMMC-7721 cells [2]
  percentage of early and late apoptotic cells: 80.08%
SMMC-7721 cells [3]
  wound healing (cell migration): healing was strongly suppressed
SMMC-7721 cells [4]; 0.1 μM
  percentage of cells with low ΔΨm (lower right quadrant): 11.35%
SMMC-7721 cells [4]; 0.2 μM
  percentage of cells with low ΔΨm (lower right quadrant): 15.66%
SMMC-7721 cells [4]; 0.5 μM
  percentage of cells with low ΔΨm (lower right quadrant): 20.16%
SMMC-7721 cells [4]; 1.0 μM
  percentage of cells with low ΔΨm (lower right quadrant): 31.30%
SMMC-7721 cells [4]; 2.0 μM
  percentage of cells with low ΔΨm (lower right quadrant): 53.12%

From PMC9080489, “Synthesis and biological evaluation of 2-aryl-benzimidazole derivatives of dehydroabietic acid as novel tubulin polymerization inhibitors” (RSC Advances, 2018)
